Reference: US20260250318A1, “COMPOSITIONS AND METHODS FOR CROSSING THE BLOOD BRAIN BARRIER” (VOYAGER THERAPEUTICS, INC., priority 2022, published 2026)

Experiments:
brain = assay: Matured TTM-001 and TTM-002 variants, NGS enrichment in mouse brain; type: in vivo, mice; conditions: relative to AAV9 control
[1] = test system: brains, heart, liver, muscle, and DRG of the NHPs; assay: Maturation of TTM-001 and TTM-002 capsids, NGS enrichment in NHP tissues; type: in vivo; conditions: relative to AAV9 control
Method in brief: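 Variants carry mutations within and flanking the loop IV peptide insert: positions 450–466 were triplet-randomized, while positions 449–466 received low-frequency point mutations. The combined pool went into two NHPs, and each peptide was scored by NGS enrichment ratio against AAV9.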

[2] = NGS fold-enrichment, mouse brain
[3] = NGS fold-enrichment of RNA, NHP brain
[4] = NGS fold-enrichment, NHP liver DNA
[5] = NGS fold-enrichment, NHP liver RNA
[6] = NGS fold-enrichment, NHP muscle
[7] = NGS fold-enrichment, brain of mice
[8] = NGS fold-enrichment, DRG of NHPs
[9] = NGS fold-enrichment, RNA, brain of NHPs
[10] = NGS fold-enrichment, heart of NHPs
[11] = NGS fold-enrichment, liver DNA of NHPs
[12] = NGS fold-enrichment, liver RNA of NHPs
[13] = NGS fold-enrichment, muscle of NHPs
[14] = NGS fold-enrichment of matured AAV capsid variants, NHP brain, RNA

Sequence | Fold Enrichment relative to AAV9, Brain (Mouse) (brain; [7]) | Fold Enrichment relative to AAV9, DRG (NHP) [1, 8] | Fold Enrichment relative to AAV9, Brain (NHP) [1, 9] | Fold Enrichment relative to AAV9, Heart (NHP) [1, 10] | Fold Enrichment relative to AAV9, Liver DNA (NHP) [1, 11] | Fold Enrichment relative to AAV9, Liver RNA (NHP) [1, 12] | Fold Enrichment relative to AAV9, Muscle (NHP) [1, 13] | Fold Enrichment relative to AAV9, Brain (Mouse) (brain; mouse brain) | Fold Enrichment relative to AAV9, Brain (NHP) [1, 14] | Fold Enrichment relative to AAV9, DRG (NHP) ([1]; NHP DRG) | Fold Enrichment relative to AAV9, Heart (NHP) ([1]; NHP heart) | Fold Enrichment relative to AAV9, Liver DNA (NHP) ([1]; NHP liver, DNA) | Fold Enrichment relative to AAV9, Liver RNA (NHP) ([1]; NHP liver, RNA) | Fold Enrichment relative to AAV9, Muscle (NHP) ([1]; NHP muscle) | further results
KTDNGHDSPHKSRQNQQT | – | – | – | – | – | – | – | – | – | – | – | – | – | – | Fold Enrichment relative to AAV9, Brain (Mouse) (brain; [2]): 7.931 fold; Fold Enrichment relative to AAV9, Brain (NHP) [1, 3]: 105.312 fold; Fold Enrichment relative to AAV9, DRG (NHP) ([1]; NGS fold-enrichment, NHP DRG): 0.000 fold; Fold Enrichment relative to AAV9, Heart (NHP) ([1]; NGS fold-enrichment, NHP heart): 0.033 fold; Fold Enrichment relative to AAV9, Liver DNA (NHP) [1, 4]: 0.018 fold; Fold Enrichment relative to AAV9, Liver RNA (NHP) [1, 5]: 0.000 fold; Fold Enrichment relative to AAV9, Muscle (NHP) [1, 6]: 0.000 fold
KTDNGSGSPHSKAHNQQT | 55.313 fold | 0.000 fold | 95.164 fold | 0.000 fold | 0.027 fold | 0.000 fold | 0.000 fold | – | – | – | – | – | – | – | Fold Enrichment relative to AAV9, Brain (Mouse) (brain; [2]): 55.313 fold; Fold Enrichment relative to AAV9, Brain (NHP) [1, 3]: 95.164 fold; Fold Enrichment relative to AAV9, DRG (NHP) ([1]; NGS fold-enrichment, NHP DRG): 0.000 fold; Fold Enrichment relative to AAV9, Heart (NHP) ([1]; NGS fold-enrichment, NHP heart): 0.000 fold; Fold Enrichment relative to AAV9, Liver DNA (NHP) [1, 4]: 0.027 fold; Fold Enrichment relative to AAV9, Liver RNA (NHP) [1, 5]: 0.000 fold; Fold Enrichment relative to AAV9, Muscle (NHP) [1, 6]: 0.000 fold
KTDRGSGSPHSKAQNQQT | 74.256 fold | 0.000 fold | 61.419 fold | 0.004 fold | 0.316 fold | 0.211 fold | 0.000 fold | – | – | – | – | – | – | – | –
KTDRMSGSPHSKAQNQQT | 104.890 fold | 0.000 fold | 65.143 fold | 0.000 fold | 0.103 fold | 0.332 fold | 0.000 fold | – | – | – | – | – | – | – | –
KTDRNSGSPHSKAQNQQT | – | – | – | – | – | – | – | 85.823 fold | 54.495 fold | 0.000 fold | 0.000 fold | 0.241 fold | 0.823 fold | 0.000 fold | –
KTDRSSGSPHSKAQNQQT | – | – | – | – | – | – | – | 123.421 fold | 52.737 fold | 0.000 fold | 0.000 fold | 0.085 fold | 0.995 fold | 0.000 fold | –
KTDRTSGSPHSKAQNQQT | – | – | – | – | – | – | – | 148.498 fold | 56.466 fold | 0.000 fold | 0.000 fold | 0.160 fold | 0.062 fold | 0.000 fold | –
KTDVGSGSPHSKAQNQQT | – | – | – | – | – | – | – | 115.774 fold | 51.849 fold | 0.000 fold | 0.007 fold | 0.560 fold | 0.385 fold | 0.000 fold | –
KTDVKSGSPHSKAQNQQT | – | – | – | – | – | – | – | 53.601 fold | 51.296 fold | 0.000 fold | 0.000 fold | 0.224 fold | 0.515 fold | 0.000 fold | –
KTDVNSGSPHSKAQNQQT | – | – | – | – | – | – | – | 66.127 fold | 57.593 fold | 0.000 fold | 0.000 fold | 0.331 fold | 0.000 fold | 0.000 fold | –
KTEARSGSPHSKAQNQQT | 62.903 fold | 0.000 fold | 73.349 fold | 0.000 fold | 0.118 fold | 0.695 fold | 0.000 fold | – | – | – | – | – | – | – | –
KTEDKSGSPHSKAQNQQT | 70.071 fold | 0.000 fold | 68.813 fold | 0.000 fold | 0.000 fold | 0.000 fold | 0.000 fold | – | – | – | – | – | – | – | –
KTEDLSGSPHSKAQNQQT | – | – | – | – | – | – | – | 70.198 fold | 54.156 fold | 0.000 fold | 0.000 fold | 0.132 fold | 1.193 fold | 0.000 fold | –
KTEDRSGSPHSKAQNQQT | 66.887 fold | 0.000 fold | 61.756 fold | 0.000 fold | 0.408 fold | 1.004 fold | 0.000 fold | – | – | – | – | – | – | – | –
KTEFGHDSPHKSGQNQQT | – | – | – | – | – | – | – | – | – | – | – | – | – | – | Fold Enrichment relative to AAV9, Brain (Mouse) (brain; [2]): 16.337 fold; Fold Enrichment relative to AAV9, Brain (NHP) [1, 3]: 77.245 fold; Fold Enrichment relative to AAV9, DRG (NHP) ([1]; NGS fold-enrichment, NHP DRG): 0.000 fold; Fold Enrichment relative to AAV9, Heart (NHP) ([1]; NGS fold-enrichment, NHP heart): 0.124 fold; Fold Enrichment relative to AAV9, Liver DNA (NHP) [1, 4]: 0.063 fold; Fold Enrichment relative to AAV9, Liver RNA (NHP) [1, 5]: 0.561 fold; Fold Enrichment relative to AAV9, Muscle (NHP) [1, 6]: 0.000 fold
KTEFVSGSPHSKAQNQQT | 69.788 fold | 0.000 fold | 59.306 fold | 0.000 fold | 0.276 fold | 0.196 fold | 0.000 fold | – | – | – | – | – | – | – | –
KTEGISGSPHSKAQNQQT | – | – | – | – | – | – | – | 78.303 fold | 53.270 fold | 0.000 fold | 0.000 fold | 0.010 fold | 0.000 fold | 0.000 fold | –
KTEGKHDSPHKSGQNQQT | – | – | – | – | – | – | – | – | – | – | – | – | – | – | Fold Enrichment relative to AAV9, Brain (Mouse) (brain; [2]): 10.345 fold; Fold Enrichment relative to AAV9, Brain (NHP) [1, 3]: 98.384 fold; Fold Enrichment relative to AAV9, DRG (NHP) ([1]; NGS fold-enrichment, NHP DRG): 0.000 fold; Fold Enrichment relative to AAV9, Heart (NHP) ([1]; NGS fold-enrichment, NHP heart): 0.056 fold; Fold Enrichment relative to AAV9, Liver DNA (NHP) [1, 4]: 0.000 fold; Fold Enrichment relative to AAV9, Liver RNA (NHP) [1, 5]: 0.000 fold; Fold Enrichment relative to AAV9, Muscle (NHP) [1, 6]: 0.000 fold
KTEGLSGSPHSKAQNQQT | – | – | – | – | – | – | – | 104.529 fold | 52.891 fold | 0.000 fold | 0.000 fold | 0.155 fold | 0.104 fold | 0.020 fold | –
KTEHLSGSPHSKAQNQQT | 69.494 fold | 0.000 fold | 83.080 fold | 0.000 fold | 0.189 fold | 0.021 fold | 0.012 fold | – | – | – | – | – | – | – | Fold Enrichment relative to AAV9, Brain (Mouse) (brain; [2]): 69.494 fold; Fold Enrichment relative to AAV9, Brain (NHP) [1, 3]: 83.080 fold; Fold Enrichment relative to AAV9, DRG (NHP) ([1]; NGS fold-enrichment, NHP DRG): 0.000 fold; Fold Enrichment relative to AAV9, Heart (NHP) ([1]; NGS fold-enrichment, NHP heart): 0.000 fold; Fold Enrichment relative to AAV9, Liver DNA (NHP) [1, 4]: 0.189 fold; Fold Enrichment relative to AAV9, Liver RNA (NHP) [1, 5]: 0.021 fold; Fold Enrichment relative to AAV9, Muscle (NHP) [1, 6]: 0.012 fold
KTEHVSGSPHSKAQNQQT | – | – | – | – | – | – | – | 71.410 fold | 58.228 fold | 0.000 fold | 0.024 fold | 0.141 fold | 0.433 fold | 0.000 fold | –
